Measurements published in patent US20250243160A1, “INDOLE DERIVATIVES FOR TARGETING AUTOPHAGY” (Automera PTE. LTD, priority 2024, published 2025).

How the values were obtained:
[1] = tested on: LC3 protein; test: LC3 lipidation (LC3-II/LC3-I) assay by Western blot in HeLa cells; format: cell-based; set-up: key: ++: >2-fold change in LC3-II/LC3-I relative to DMSO control; +: <2-fold change in LC3-II/LC3-I relative to DMSO control; −: no change in LC3-II/LC3-I relative to DMSO control; details: 24 hours treatment, relative to vehicle control (DMSO)
Method: (§1) HeLa cells were seeded in 6-well plates (700,000 cells) and allowed to adhere overnight. Media was replaced one hour before administering either vehicle (DMSO) or test compounds. After 24 hours of treatment, the media was discarded, and cells were rinsed once with ice-cold 1×PBS before detached from plates with ice-cold RIPA Lysis and Extraction Buffer (Thermo Fisher Scientific) which was supplemented with protease and phosphatase inhibitors. The resulting cell suspensions were transferred to pre-chilled microcentrifuge tubes, incubated on ice for 20 min with intermittent mixing and then centrifuged at 12,000 rpm for 20 min at 4° C. The supernatants were then aspirated slowly and transferred into new tubes kept on ice. The protein concentration in the samples was determined using BCA kit (Thermo Fisher Scientific) as per manufacturer's instructions.
(§2) For the p62 oligomerization and LC3 lipidation assays, cell lysates were prepared using RIPA buffer supplemented with 2% SDS and benzonase (Sigma). The lysates were then combined with 4× Laemmli protein sample buffer (Bio-Rad), heated at 70° C. for 10 min and subjected to a brief centrifugation of 10-15 seconds.
(§3) For p62 oligomerization and LC3 lipidation assays, lysates containing 30 μg of protein and for BRD4 and FKBP12(F36V) degradation assays, lysates containing 20 μg of protein, were loaded slowly into the wells of 4-20% gradient Tris-glycine gels (Bio-Rad). The gels were run at 100V until completion and transferred onto PVDF membranes. Membranes were blocked using 5% milk in TBS-Tween (0.1%) buffer at room temperature for 1 hour. The membranes were incubated with primary antibody in 5% milk-TBST with shaking, overnight at 4° C. The primary antibodies used were: p62 (Novus Biologicals 2C11, H00008878-MO1), LC3A/B (Cell Signalling Technology D3U4C, 12741S), FKBP12 (Abcam ab24373), BRD4 (Cell Signalling Technology E2A7X, 13440S), GAPDH (Cell Signalling Technology D4C6R, 97166S), and β-Actin (Proteintech 66009-1-Ig). Following primary antibody incubation, membranes were washed thrice with TBST 10 min before and after incubation with secondary-HRP conjugated antibody in 5% milk-TBST for 1 hour at room temperature. The secondary antibodies used were: Anti-Mouse IgG HRP Conjugate (Promega W4021B) and Anti-Rabbit IgG HRP Conjugate (Promega W4011). For the p62 oligomerization assay, the total protein levels were assessed using Ponceau staining (Thermo Fisher Scientific) of PVDF membrane as per recommendation by manufacturer's guidelines.
(§4) Imaging was acquired using SuperSignal™ West Pico PLUS Chemiluminescent Substrate (Thermo Fisher Scientific) with iBright Invitrogen FL100 imaging system. Band signal intensity, reflective of protein concentrations, were quantified using Invitrogen™ iBright™ Analysis and Image J software.
HeLa cells were treated with compounds for 24 hours to evaluate the effect of these compounds on LC3-II/LC3-I levels, a measure of autophagy activation. The changes in levels of LC3-I, LC3-II and […] (loading control) were assessed by Western blotting, as described in experimental procedures. The fold increase of LC3-II/LC3-I levels induced by compound treatment relative to vehicle control (DMSO) was determined and summarized in Table 9. Specifically, FIGS. 3A-C show Western blot images and their corresponding quantification showing the lipidation levels of LC3 protein (LC3-II/LC3-I) by 24 hours compound treatments at listed concentrations, relative to vehicle control (DMSO) in HeLa cells.

[2] = biological target: Recombinant p62 protein (Homo sapiens, UniProt Q13501); test: Surface plasmon resonance (SPR) compound binding to p62; details: 15° C
Chain of Recombinant p62 protein (Q13501 whole entry, species assumed): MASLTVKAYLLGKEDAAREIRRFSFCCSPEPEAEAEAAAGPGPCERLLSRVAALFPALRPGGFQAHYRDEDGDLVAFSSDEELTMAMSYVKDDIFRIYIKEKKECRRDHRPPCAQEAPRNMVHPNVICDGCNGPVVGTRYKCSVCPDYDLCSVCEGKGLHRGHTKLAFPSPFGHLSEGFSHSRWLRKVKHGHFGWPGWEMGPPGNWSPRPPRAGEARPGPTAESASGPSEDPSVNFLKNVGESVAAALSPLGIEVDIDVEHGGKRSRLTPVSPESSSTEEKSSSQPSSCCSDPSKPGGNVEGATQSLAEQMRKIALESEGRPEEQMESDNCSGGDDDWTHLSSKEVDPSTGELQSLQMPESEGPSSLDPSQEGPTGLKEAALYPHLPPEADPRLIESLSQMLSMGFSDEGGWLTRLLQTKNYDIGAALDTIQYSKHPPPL
Method: Recombinant p62 protein was buffer exchanged into Biacore SPR running buffer (Cytiva 100671) using the Slide-A-Lyzer Mini Dialysis system 7K MWCO (Thermo Fisher Scientific, Cat no. 69560). The final protein concentration was determined using the Nanodrop One spectrophotometer (Thermo Fisher Scientific, cat no. ND-ONE-W), with calibration for the dialysis buffer.
The prepared protein was diluted in sodium acetate buffer (NaAc, pH 5.5, Cytiva) to concentrations ranging from approximately 0.25-40 μg/mL. Post-immobilization, the protein required approximately 16 hours of equilibration in running buffer supplemented with 1% DMSO at 15° C. to ensure adequate surface equilibration and protein reorganization.
All SPR experiments were conducted at a constant temperature of 15° C. The SPR chip surface was activated using EDC/NHS for a contact time of 6-10 min at a flow rate of 10 μL/min. This was followed by protein immobilization for 2100 seconds and ethanolamine capping for 420 seconds, both at the same flow rate. Immediately after immobilization, the NH2-REEE peptide was analyzed in Single Cycle Kinetics mode (SCK) to verify surface activity, ensuring it binds the sample with the published affinity (˜20 μM by SPR).
For general compound binding studies, experiments were performed at 15° C. using a running buffer composed of 10 mM HEPES, 150 mM NaCl, 1 mM DTT, 0.05% Tween 20, and 1% DMSO at pH 7.4. The test compound was initially prepared at a 20 mM concentration in DMSO and subsequently titrated in 2-fold dilutions. For each assay, 2 μL of the compound was mixed with 198 μL of the running buffer, and the mixture was thoroughly pipetted approximately 15 times for homogenization.
A series of blank injections (0 μM concentration) were included for double referencing, with at least 8 or 16 per plate depending on the format. Typical injection parameters were 120 seconds for association and 180 seconds for dissociation at a flow rate of […]. A four-point solvent correction was prepared with DMSO concentrations ranging from 2% to 0.5% in the buffer. Post each compound injection, the system's needles were washed with 50% DMSO.
Analysis of the SPR data was conducted using the Cytiva Evaluation software. The binding levels at the late time-point of each interaction were corrected for reference, then normalized to percentage bound values to account for variations in immobilization levels, protein molecular weight, and compound molecular weight.
Compound binding studies were carried out according to experimental procedures above and SPR % occupancy was determined and summarized in Table 7.

[3] = biological target: T1, p62 oligomers (Homo sapiens, UniProt Q13501); test: p62 oligomerization assay by Western blot in HeLa cells; format: cell-based; details: 24 hours treatment, relative to vehicle control (DMSO)
T1 construct: endogenous in cells; host or cells: HeLa
T1 sequence (Q13501 whole entry): as the sequence (Q13501 whole entry, species assumed) above
Method: as §1, §2, §3, §4
HeLa cells were treated with compounds for 24 hours to evaluate the effect of these compounds on p62 oligomerisation activity. The resulting changes in levels of p62 oligomers were assessed by Western blotting, as described in experimental procedures. The fold change of p62 oligomer levels induced by compound treatment relative to vehicle control (DMSO) was determined and summarized in Table 8. Specifically, FIGS. 2A-C show Western blot images and their corresponding quantification showing the levels of high molecular weight (100-200 kDa) p62 oligomers by 24 hours compound treatments at listed concentrations, relative to vehicle control (DMSO) in HeLa cells. Protein loading consistencies was assessed by Ponceau staining (not shown).

Structure (SMILES) | receptor occupancy at 100 µM [2] [%] | LC3 lipidation (fold increase of LC3-II/LC3-I levels) [1] | p62 oligomerization (fold change of p62 oligomer levels) [3]
OCCNCc1cccc2c1ccn2Cc1ccc(F)cc1 [Compound 10] | > 70 | + (<2-fold change in LC3-II/LC3-I relative to DMSO control) | ++ (>2-fold change relative to DMSO control)
OCCNCc1cccc2c1ccn2Cc1ccc(Cl)cc1 [Compound 11] | > 70 | ++ (>2-fold change in LC3-II/LC3-I relative to DMSO control) | ++ (>2-fold change relative to DMSO control)
OCCNCc1cccc2c1ccn2Cc1cccc(Cl)c1 [Compound 13] | 30 to 70 | + (<2-fold change in LC3-II/LC3-I relative to DMSO control) | ++ (>2-fold change relative to DMSO control)
OCCNCc1cccc2c1ccn2Cc1c[nH]cn1 [Compound 21, 2-(((1-((1H-imidazol-4-yl)methyl)-1H-indol-4-yl)methyl)amino)ethan-1-ol] | 30 to 70 | − | + (<2-fold change relative to DMSO control)
OCCNCc1cccc2c1ccn2CCC1CCNCC1 [Compound 26] | 30 to 70 | + (<2-fold change in LC3-II/LC3-I relative to DMSO control) | ++ (>2-fold change relative to DMSO control)

Now from value to compound, other results behind:

receptor occupancy at 100 µM [2] [%] | Structure (SMILES) | LC3 lipidation (fold increase of LC3-II/LC3-I levels) [1] | p62 oligomerization (fold change of p62 oligomer levels) [3]
> 70 | CC(C)(C)OC(=O)N1Cc2ccc(Cn3ccc4c(CNCCO)cccc43)cc2C1 [Compound 27] | + (<2-fold change in LC3-II/LC3-I relative to DMSO control) | ++ (>2-fold change relative to DMSO control)
> 70 | OCCNCc1cc(F)cc2c1ccn2Cc1ccccc1 [Compound 31] | + (<2-fold change in LC3-II/LC3-I relative to DMSO control) | ++ (>2-fold change relative to DMSO control)
> 70 | OCCNCc1ccc(Cl)c2c1ccn2Cc1ccccc1 [Compound 35] | ++ (>2-fold change in LC3-II/LC3-I relative to DMSO control) | ++ (>2-fold change relative to DMSO control)
30 to 70 | Cc1cn(Cc2ccccc2)c2cccc(CNCCO)c12 [Compound 37, 2-(((1-benzyl-3-methyl-1H-indol-4-yl)methyl)amino)ethan-1-ol] | + (<2-fold change in LC3-II/LC3-I relative to DMSO control) | ++ (>2-fold change relative to DMSO control)
30 to 70 | Cc1cn(Cc2ccc(F)cc2)c2cccc(CNCCO)c12 [Compound 48] | ++ (>2-fold change in LC3-II/LC3-I relative to DMSO control) | ++ (>2-fold change relative to DMSO control)
30 to 70 | Cc1cn(CC2CCOCC2)c2cccc(CNCCO)c12 [Compound 49] | − | + (<2-fold change relative to DMSO control)
